Measured values: patent publication US7781592B2, “Thione derivative, method for the preparation thereof, and pharmaceutical composition containing the same” (CJ Cheiljedang Corporation, priority 2003, dated 2010)
Blank lines part the entries; values can stand above or below the molecule they belong to.

Tests used:
COX-1 = target: T1, COX-1 (Homo sapiens, UniProt P23219); test: Assay for the COX-1 inhibitory activity using U-937 (PGE2 inhibition); type: cell-based; conditions: test compound 1 μM, U-937 human lymphoma cells, arachidonic acid substrate, PGE2 quantified; for inhibition at 1 µM: read-out: Cyclooxygenase (COX) Inhibition (%) COX-1 (1 μM)
T1 construct: host or cells: U-937 human lymphoma cells
Method: The collected cells were diluted with HBSS (×1, Hank's balanced salt solution) to a concentration of 1×10^6 cells/ml. 1 ml of the dilute cell solution was placed into each well of 12-well plates. 5 μl of 1 μM solution of a test compound in DMSO and 5 μl of DMSO as a control were added to the wells. The wells were incubated in CO2 incubator at 37° C. for 15 minutes. Separately, 10 mM stock solution of arachidonic acid in ethanol was diluted ten times in ethanol to prepare 1 mM solution of arachidonic acid. Arachidonic acid acts as a substrate. 10 μl of the 1 mM solution of arachidonic acid was added to each well and incubated at CO2 incubator at 37° C. for 30 minutes. The cell solution of each well was placed in a centrifuge test tube and centrifuged at 10,000 rpm at 4° C. for 5 minutes. The concentration of PGE2 in the collected cells and the supernatant was quantified by means of a monoclonal kit (Cayman Chemicals). The percentages of PGE2 inhibition in a group of the test compound-treated cells in relation to a group of the DMSO-treated cells were calculated. Based on the calculated values, the COX-1 inhibitory activities were evaluated.
(§1) The percentages of the COX inhibition were calculated according to the following equation: % Inhibition=(concentration of PGE2 in test compound-untreated sample−concentration of PGE2 in test compound-treated sample)/(concentration of PGE2 in test compound-untreated sample)×100

COX-2 = target: T2, COX-2 (Mus musculus, UniProt Q05769); test: Assay for the COX-2 inhibitory activity using Raw 264.7 cell line (PGE2 inhibition); type: cell-based; conditions: test compound 30 nM, RAW 264.7 cells, aspirin pre-treated, interferon + LPS 18 hours, PGE2 by EIA; for inhibition at 0.03 µM: RAW264.7, read-out: Cyclooxygenase (COX) Inhibition (%) COX-2 (30 nM)
T2 construct: host or cells: RAW 264.7 cells, pre-treated with aspirin, then induced with interferon and LPS
T2 sequence (Q05769 18-604): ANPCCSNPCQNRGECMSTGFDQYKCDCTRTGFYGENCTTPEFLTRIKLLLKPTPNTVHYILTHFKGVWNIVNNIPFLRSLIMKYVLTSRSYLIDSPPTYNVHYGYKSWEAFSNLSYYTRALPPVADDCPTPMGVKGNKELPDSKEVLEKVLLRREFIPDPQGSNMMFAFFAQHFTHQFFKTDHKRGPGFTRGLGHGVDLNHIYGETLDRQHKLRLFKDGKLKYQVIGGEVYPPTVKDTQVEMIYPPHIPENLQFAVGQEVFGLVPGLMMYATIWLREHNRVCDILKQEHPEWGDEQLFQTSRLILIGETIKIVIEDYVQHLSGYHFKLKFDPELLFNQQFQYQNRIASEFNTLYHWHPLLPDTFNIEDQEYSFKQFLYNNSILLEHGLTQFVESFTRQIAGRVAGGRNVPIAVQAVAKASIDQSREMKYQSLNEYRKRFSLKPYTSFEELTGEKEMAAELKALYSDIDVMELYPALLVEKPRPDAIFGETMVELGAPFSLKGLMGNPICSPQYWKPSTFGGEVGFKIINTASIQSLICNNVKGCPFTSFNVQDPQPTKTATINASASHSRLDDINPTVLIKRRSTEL
Method: Each well was treated with 250 μM of aspirin and incubated at 37° C. for 2 hours. After the culture media were replaced with new culture media, the new culture media were treated with a test compound (30 nM) and incubated for 30 minutes. Then, each well was treated with interferon ? (100 units/ml) and lipopolysaccharide (LPS, 100 ng/ml) and incubated for 18 hours. The culture media were transferred to other test tubes. The concentration of PGE2 was quantified by means of the EIA kit (Cayman Chemicals).
as §1

T1 sequence (P23219 24-599): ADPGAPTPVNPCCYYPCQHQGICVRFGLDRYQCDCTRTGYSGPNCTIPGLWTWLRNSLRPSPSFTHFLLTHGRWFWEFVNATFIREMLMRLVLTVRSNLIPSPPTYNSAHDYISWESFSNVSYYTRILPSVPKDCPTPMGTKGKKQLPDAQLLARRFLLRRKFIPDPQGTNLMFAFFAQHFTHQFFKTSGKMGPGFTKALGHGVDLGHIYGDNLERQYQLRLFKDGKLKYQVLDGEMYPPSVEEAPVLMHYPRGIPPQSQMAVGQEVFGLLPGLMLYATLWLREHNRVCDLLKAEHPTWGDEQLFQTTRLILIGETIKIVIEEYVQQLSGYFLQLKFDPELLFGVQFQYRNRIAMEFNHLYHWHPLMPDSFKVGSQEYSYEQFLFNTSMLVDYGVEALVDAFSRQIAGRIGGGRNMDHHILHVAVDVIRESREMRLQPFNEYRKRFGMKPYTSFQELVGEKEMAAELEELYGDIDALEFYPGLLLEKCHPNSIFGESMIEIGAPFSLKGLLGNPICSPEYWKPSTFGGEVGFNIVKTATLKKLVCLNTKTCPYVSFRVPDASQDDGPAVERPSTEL

SMILES: CCOc1ccc(-c2c(-c3ccc(S(C)(=O)=O)cc3)ssc2=S)cc1 [Example 39, 4-(4-ethoxyphenyl)-5-(4-methanesulfonylphenyl)-[1,2]dithiol-3-thione]
melting point: 210 to 212 °C
inhibition at 1 µM (COX-1): 15%
inhibition at 0.03 µM (COX-2): 36.6%

SMILES: CS(=O)(=O)c1ccc(-c2ssc(=S)c2-c2ccc(Br)cc2)cc1 [Example 40, 4-(4-bromophenyl)-5-(4-methanesulfonylphenyl)-[1,2]dithiol-3-thione]
melting point: 238 to 240 °C
inhibition at 1 µM (COX-1): 18.3%
inhibition at 0.03 µM (COX-2): 35.7%

SMILES: Cc1ccc(-c2c(-c3ccc(S(C)(=O)=O)cc3)ssc2=S)cc1 [Example 41, 5-(4-methanesulfonylphenyl)-4-p-toryl-[1,2]dithiol-3-thione]
Cyclooxygenase (COX) Inhibition (%) COX-1 (1 μM) (COX-1): 20.1%
Cyclooxygenase (COX) Inhibition (%) COX-2 (30 nM) (COX-2): 24.5%

SMILES: CS(=O)(=O)c1ccc(-c2ssc(=S)c2-c2ccccc2)cc1 [Example 42, 5-(4-methanesulfonylphenyl)-4-phenyl-[1,2]dithiol-3-thione]
melting point: 200 to 202 °C
inhibition at 1 µM (COX-1): 24.5%
inhibition at 0.03 µM (COX-2): 20.1%

SMILES: COc1ccc(-c2c(-c3ccc(S(C)(=O)=O)cc3)ssc2=S)cc1 [Example 43, 5-(4-methanesulfonylphenyl)-4-(4-methoxyphenyl)-[1,2]dithiol-3-thione]
melting point: 220 to 222 °C
inhibition at 1 µM (COX-1): 19.3%
inhibition at 0.03 µM (COX-2): 38.4%

SMILES: CS(=O)(=O)c1ccc(-c2ssc(=S)c2-c2ccccc2C(F)(F)F)cc1 [Example 44, 5-(4-methanesulfonylphenyl)-4-(2-trifluoromethylphenyl)-[1,2]dithiol-3-thione]
melting point: 240 to 242 °C
inhibition at 1 µM (COX-1): 25.5%
inhibition at 0.03 µM (COX-2): 20.1%

SMILES: CS(=O)(=O)c1ccc(-c2ssc(=S)c2-c2ccc(Cl)cc2)cc1 [Example 45, 4-(4-chlorophenyl)-5-(4-methanesulfonylphenyl)-[1,2]dithiol-3-thione]
melting point: 233 to 235 °C
inhibition at 1 µM (COX-1): 19.6%
inhibition at 0.03 µM (COX-2): 22.1%

SMILES: CS(=O)(=O)c1ccc(-c2ssc(=S)c2-c2ccc(Cl)c(Cl)c2)cc1 [Example 46, 4-(3,4-dichlorophenyl)-5-(4-methanesulfonylphenyl)-[1,2]dithiol-3-thione]
inhibition at 1 µM (COX-1): 24.6%
inhibition at 0.03 µM (COX-2): 21%

SMILES: CS(=O)(=O)c1ccc(-c2ssc(=S)c2-c2ccncc2)cc1 [Example 47, 5-(4-methanesulfonylphenyl)-4-(pyridine-4-yl)-[1,2]dithiol-3-thione]
melting point: 245 to 247 °C
inhibition at 1 µM (COX-1): 22.5%
inhibition at 0.03 µM (COX-2): 21.4%

SMILES: CS(=O)(=O)c1ccc(-c2ssc(=S)c2-c2cccnc2)cc1 [Example 48, 5-(4-methanesulfonylphenyl)-4-(pyridine-3-yl)-[1,2]dithiol-3-thione]
inhibition at 1 µM (COX-1): 23.6%
inhibition at 0.03 µM (COX-2): 24.2%

SMILES: CS(=O)(=O)c1ccc(-c2ssc(=S)c2-c2ccccn2)cc1 [Example 49, 5-(4-methanesulfonylphenyl)-4-(pyridine-2-yl)-[1,2]dithiol-3-thione]
inhibition at 1 µM (COX-1): 28%
inhibition at 0.03 µM (COX-2): 19.5%

SMILES: CS(=O)(=O)c1ccc(-c2ssc(=S)c2-c2ccc(F)cc2)cc1 [Example 50, 4-(4-fluorophenyl)-5-(4-methanesulfonylphenyl)-[1,2]dithiol-3-thione]
melting point: 195 to 197 °C
inhibition at 1 µM (COX-1): 27.2%
inhibition at 0.03 µM (COX-2): 19.6%

SMILES: COc1ccc(OC)c(-c2c(-c3ccc(S(C)(=O)=O)cc3)ssc2=S)c1 [Example 51, 4-(2,5-dimethoxyphenyl)-5-(4-methanesulfonylphenyl)-[1,2]dithiol-3-thione]
melting point: 176 to 177 °C
inhibition at 1 µM (COX-1): 27.6%
inhibition at 0.03 µM (COX-2): 19.8%

SMILES: Cc1cc(C)cc(-c2c(-c3ccc(S(C)(=O)=O)cc3)ssc2=S)c1 [Example 52, 4-(3,5-dimethylphenyl)-5-(4-methanesulfonylphenyl)-[1,2]dithiol-3-thione]
melting point: 164 to 165 °C
inhibition at 1 µM (COX-1): 26.6%
inhibition at 0.03 µM (COX-2): 19.1%

SMILES: COc1cccc(-c2c(-c3ccc(S(C)(=O)=O)cc3)ssc2=S)c1 [Example 53, 5-(4-methanesulfonylphenyl)-4-(3-methoxyphenyl)-[1,2]dithiol-3-thione]
melting point: 212 to 213 °C
inhibition at 1 µM (COX-1): 26.7%
inhibition at 0.03 µM (COX-2): 21.6%

SMILES: CS(=O)(=O)c1ccc(-c2ssc(=S)c2-c2ccccc2[N+](=O)[O-])cc1 [Example 54, 5-(4-methanesulfonylphenyl)-4-(2-nitrophenyl)-[1,2]dithiol-3-thione]
melting point: 170 to 171 °C
inhibition at 1 µM (COX-1): 22.4%
inhibition at 0.03 µM (COX-2): 26.3%

More lines, now with the values ahead:

melting point: 188 to 189 °C
inhibition at 1 µM (COX-1): 27.6%
inhibition at 0.03 µM (COX-2): 20.2%
SMILES: CS(=O)(=O)c1ccc(-c2ssc(=S)c2-c2cccc(C(F)(F)F)c2)cc1 [Example 55, 5-(4-methanesulfonylphenyl)-4-(3-trifluoromethylphenyl)-[1,2]dithiol-3-thione]

Cyclooxygenase (COX) Inhibition (%) COX-1 (1 μM) (COX-1): 20.6%
Cyclooxygenase (COX) Inhibition (%) COX-2 (30 nM) (COX-2): 25.6%
SMILES: Cc1ccccc1-c1c(-c2ccc(S(C)(=O)=O)cc2)ssc1=S [Example 56, 5-(4-methanesulfonylphenyl)-4-o-toryl-[1,2]dithiol-3-thione]

melting point: 161 to 162 °C
inhibition at 1 µM (COX-1): 20.7%
inhibition at 0.03 µM (COX-2): 21.1%
SMILES: CS(=O)(=O)c1ccc(-c2ssc(=S)c2-c2ccccc2Cl)cc1 [Example 57, 4-(2-chlorophenyl)-5-(4-methanesulfonylphenyl)-[1,2]dithiol-3-thione]

melting point: 176 to 177 °C
inhibition at 1 µM (COX-1): 24.2%
inhibition at 0.03 µM (COX-2): 20.1%
SMILES: CS(=O)(=O)c1ccc(-c2ssc(=S)c2-c2ccc(Cl)cc2Cl)cc1 [Example 58, 4-(2,4-dichlorophenyl)-5-(4-methanesulfonylphenyl)-[1,2]dithiol-3-thione]

inhibition at 1 µM (COX-1): 22.6%
inhibition at 0.03 µM (COX-2): 20.1%
SMILES: CS(=O)(=O)c1ccc(-c2ssc(=S)c2-c2ccc3ccccc3c2)cc1 [Example 65, 5-(4-methanesulfonylphenyl)-4-(naphthalene-2-yl)-[1,2]dithiol-3-thione]

Cyclooxygenase (COX) Inhibition (%) COX-1 (1 μM) (COX-1): 28.2%
Cyclooxygenase (COX) Inhibition (%) COX-2 (30 nM) (COX-2): 19.2%
SMILES: CS(=O)(=O)c1ccc(-c2ssc(=S)c2-c2c(F)c(F)c(F)c(F)c2F)cc1 [Example 66, 5-(4-methanesulfonylphenyl)-4-pentafluorophenyl-[1,2]dithiol-3-thione]

Cyclooxygenase (COX) Inhibition (%) COX-1 (1 μM) (COX-1): 20.3%
Cyclooxygenase (COX) Inhibition (%) COX-2 (30 nM) (COX-2): 21.0%
SMILES: Cc1ccc(-c2c(-c3ccc(S(C)(=O)=O)cc3Cl)ssc2=S)cc1 [Example 71, 5-(2-chloro-4-methanesulfonylphenyl)-4-p-toryl-[1,2]dithiol-3-thione]

Cyclooxygenase (COX) Inhibition (%) COX-1 (1 μM) (COX-1): 15.2%
Cyclooxygenase (COX) Inhibition (%) COX-2 (30 nM) (COX-2): 31.5%
SMILES: Cc1ccc(-c2c(-c3ccc(S(C)(=O)=O)c(F)c3)ssc2=S)cc1 [Example 77, 5-(3-fluoro-4-methanesulfonylphenyl)-4-p-toryl-[1,2]dithiol-3-thione]

inhibition at 1 µM (COX-1): 18.5%
inhibition at 0.03 µM (COX-2): 32.5%
SMILES: COc1ccc(-c2c(-c3ccc(S(C)(=O)=O)c(F)c3)ssc2=S)cc1 [Example 78, 5-(3-fluoro-4-methanesulfonylphenyl)-4-(4-methoxyphenyl)-[1,2]dithiol-3-thione]

Cyclooxygenase (COX) Inhibition (%) COX-1 (1 μM) (COX-1): 25.6%
Cyclooxygenase (COX) Inhibition (%) COX-2 (30 nM) (COX-2): 23.2%
SMILES: Cc1ccc(-c2c(-c3ccc(S(C)(=O)=O)cc3)[nH][nH]c2=S)cc1 [Example 80, 5-(4-methanesulfonylphenyl)-4-p-toryl-[1,2]dihydropyrazole-3-thione]
